Laboratory results: US8188270B2, “Polymorphous form of 5-chloro-N-({(5S)-2-oxo-3[4-(3-oxo-4-morpholinyl)-phenyl]-1,3-oxazolidine-5-yl}-methyl)-2-thiophene carboxamide” (Bayer Schering Pharma Aktiengesellschaft, priority 2005, dated 2012)

Assay: Solubility comparison of crystal modifications of the compound of the formula (I)
Type: physicochemical
Conditions: modification II versus known modification (modification I)

- solubility in comparison to the known modification: higher solubility
SMILES: O=C(NC[C@H]1CN(c2ccc(N3CCOCC3=O)cc2)C(=O)O1)c1ccc(Cl)s1 [modification II, 5-chloro-N-({(5S)-2-oxo-3-[4-(3-oxo-4-morpholinyl)-phenyl]-1,3-oxazolidin-5-yl}-methyl)-2-thiophenecarboxamide]
